Where two headings read alike, the source gives them in different places.
Tests used:
Neuronal cortical cells = test: Assay for test compound cytoxicity, MTS (Assay 3(d)); assay type: cell-based, mouse
Description: (§1) Media was then replaced with Neurobasal media (Invitrogen Life Technologies) and B27 supplements (Invitrogen Life Technologies). Cultures were maintained at 37° C. in 5% CO2. Prior to experimentation, the culture medium was replaced with Neurobasal media and B27 minus antioxidants (Invitrogen Life Technologies).
Cell viability is determined using the MTS assay. Culture medium is […] replaced with fresh neurobasal medium plus B27 supplements minus antioxidants. 1/10th volume MTS solution (Cell Titre 96 Aqueous One, Promega Corporation) and incubated at 37° C., 2 hrs. 200 microliter aliquots are measured with a spectrophotometer at 560 nm.
(d) Assay for Test Compound Cytoxicity
Neuronal cortical cells were cultured for five days as per Assay 2 in NB media and B27 supplement.
On day six the test compounds were added to the neuronal cell cultures in NB media and B27 supplement minus antioxidants.
Test compounds were dissolved in 100% DMSO to a concentration of 2.5 mM (10 mM if excess compound was weighed out per vial—then diluted to 2.5 mM). […] Test compounds were not added directly to cells, instead they were added to a 48 well ‘Drug Plate’ as comprised below:
(§2) The Drug Plate was incubated at 37° C. for 15 mins. 200 ul of each well was added in triplicate to the corresponding cell plate. The cell plate was incubated at 37 C, for 4 days.
On completion of the assay, 1/10 volume MTS was added per well of plate (ie 25 ul/250 ul). The plates were incubated at 37 C for 2 hrs, and then absorbance was read at 560 nm.

[1] = test system: Neuronal cortical cells treated with Aβ1-42; test: Assay for Aβ neurotoxicity and Aβ neuroprotection (Assay 3(c)); assay type: cell-based, mouse; details: 20 uM Aβ1-42, 4 days, MTS
Description: as §1
(c) Assay for Aβ Neurotoxicity and Aβ Neuroprotection
Neuronal cortical cells were cultured for five days as per Assay 2. On day six the neurobasal (NB) media (Invitrogen Life Technologies) and B27 supplement (Invitrogen Life Technologies) were replaced with NB media and B27 supplement (no antioxidants). On day six, test compounds were individually added to the neuronal cell cultures:
Aβ was initially dissolved in 20 mM NaOH to a concentration of 1 mM and sonicated for 5 minutes. The peptide was then diluted in H2O and 10×PBS to a final concentration of 200 uM Aβ in 1×PBS. The peptide was again sonicated for 5 minutes and then spun at 14000 rpm for 5 min and transferred to a fresh tube.
The test compounds were dissolved in 100% DMSO to a concentration of 2.5 mM (10 mM if excess compound was weighed out per vial—then diluted to 2.5 mM). […] Test compounds were not added directly to cells, instead they were added to a 48 well ‘Drug Plate’ as comprised below:
as §2
On the 4th day after treating the cells the assay is completed by adding MTS to the cells.

[2] = test system: Aβ in extract of tissue from post mortem human AD brain; test: Human brain amyloid solubilisation assay (Assay 9, BAS); assay type: biochemical
Description: Assay 9. Human Brain Amyloid Solubilisation Assay
This assay was performed in order to assess the ability of a test compound to mobilise Aβ from the insoluble to the soluble phase of an extract of tissue from post mortem human AD brain.
Up to 0.5 g of plaque-bearing cortex without meninges was homogenized using a DIAX 900 homogenizer (Heudolph and Co, Kelheim, Germany) or other suitable device for three 30-second periods at full speed in 2 ml of ice-cold phosphate-buffered saline, pH 7.4. To obtain the phosphate-buffered saline-extractable fraction, the homogenate was centrifuged at 100,000×g for 30 min and the supernatant removed. Alternatively, the tissue was freeze dried then pulverised to form a powder which was then weighed out into aliquots for extraction as above. Supernatant, either freeze-dried and resuspended or in unconcentrated form, was dissolved in 200 μl of Tris-Tricine sodium dodecyl sulfate (SDS) sample buffer pH 8.3 containing 8% SDS, 10% 2-mercaptoethanol. Aliquots (10 μl) were then boiled for 10 minutes before SDS-polyacrylamide gel electrophoresis. The insoluble fraction of the cortical samples was obtained by resuspending the initial pelleted sample in 1 ml of phosphate-buffered saline. A 50-μl aliquot of this suspension was then boiled in […] of sample buffer as above.
Tris-Tricine polyacrylamide gel electrophoresis was performed by loading appropriately diluted samples on to 10% to 20% gradient gels (Novex, San Diego, Calif.) followed by transfer on to 0.2-μm nitrocellulose membrane (Bio-Rad, Hercules, Calif.). Aβ was detected by using monoclonal antibody W02, which detects residues 5 through 8, […] (or another suitable antibody) in conjunction with horseradish peroxidase-conjugated rabbit anti-mouse IgG (Dako, Denmark), and visualized by using enhanced chemiluminescence (eg ECL; Amersham Life Science, Buckinghamshire, UK). Each gel included three lanes containing 0.5, 1, and 2 ng of synthetic Aβ40 (Keck Laboratory, Yale University, New Haven, Conn.) as reference standards.
Blot films were scanned by using a suitable imaging system such as the UVP gel documentation system, and densitometry performed using suitable software, eg UVP Labworks. The dynamic range of the film/scanner was determined by using a step tablet (No. 911ST600, Kodak, Rochester N.Y.), a calibrated film exposed by the manufacturer to provided steps of known increasing intensity. The quantifiable range of signal intensity for densitometric analysis of the mono- and dimeric Aβ bands was based on the comparison with a curve obtained by scanning and densitometry of the step tablet.
All samples were analysed at least twice, and gel loadings and dilutions were adjusted to fit within the quantifiable region of the standard curve. […] The insoluble Aβ being comprised of the pelletable fraction derived from the insoluble amyloid plaque from the above cortical samples and the soluble fraction comprising monomeric and/or oligomeric soluble Aβ.

[3] = target: T1, hydrogen peroxide generation by Aβ in the presence of copper (Homo sapiens, UniProt P05067); test: Fluorometric H2O2 assay (Assay 1); assay type: biochemical; details: Aβ 1-42 with Cu-Gly, DCF/HRP, 37 C 60 min; several values in one cell = repeat determinations; read-out: Peroxide IC50
T1 construct: The reaction solutions contained Aβ 1-42 at concentrations in the range of 50 nM to 1 μM
Description: Assay 1. Fluorometric H2O2 Assay
A fluorometric assay was used to test the ability of a test compound to inhibit hydrogen peroxide generation by Aβ in the presence of copper based on dichlorofluoroscein diacetate (DCF; Molecular Probes, Eugene Oreg.). The DCF solution (5 mM) in 100% dimethyl sulphoxide (previously purged with argon for 2 hr at 20° C.) was deacetylated in the presence of 0.25M NaOH for 30 min and neutralised at pH 7.4 to a final concentration of 1 mM. Horseradish peroxidase (HRP) stock solution was prepared to 1 μM at pH 7.4. The reactions were carried out in PBS, pH 7.4 in a 96 well plate (total volume=250 μl/well). The reaction solutions contained Aβ 1-42 at concentrations in the range of 50 nM to 1 μM, copper-glycine chelate (Cu-Gly), was prepared by adding CuCl2 to glycine in the ratio of 1:6 and added to the Aβ in the proportion 2Cu-Gly: 1Aβ), reducing agents including dopamine (5 μM) or ascorbic acid, deacetylated DCF 100 μM, and HRP, 0.1 μM. […] The reaction mixture was incubated at 37 C for 60 min. […] H2O2 concentration may be established by comparing fluorescence with the H2O2 standards. Inhibition of AB H2O2 production was assayed by including a given concentration of test compound(s) in the test wells.

[4] = BL6J×129sv, mouse, 4 days, 1 uM
[5] = BL6J×129sv, mouse, 4 days, 10 uM
[6] = solubilising plaques relative to PBS

T1 sequence (P05067 672-713 limits assumed): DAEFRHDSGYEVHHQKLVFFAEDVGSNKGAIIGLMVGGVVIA

Row | Compound | Test Compound Cytoxicity 0.1 um (Neuronal cortical cells; BL6J×129sv, mouse, 4 days) [%] | Test Compound Cytoxicity 1 uM (Neuronal cortical cells; [4]) | Test Compound Cytoxicity 10 uM (Neuronal cortical cells; [5]) | % inhibition Abeta toxicity [1] [%] | BAS Score [2, 6] | IC50 [3] [nM] | Cell viability (% viable cells, MTS) (Neuronal cortical cells; 1 uM, 4 days, in %) | Viable 10 uM (Neuronal cortical cells; 10 uM test compound, repeated lines = repeat determinations, in %) | Cell viability (% viable cells, MTS) (Neuronal cortical cells; 10 uM, 4 days, in %) | Cell viability (% viable cells, MTS) (Neuronal cortical cells; 0.1 um, 4 days) [%] | BAS Score [2] | Viable 10 uM (Neuronal cortical cells; [5])
1 | Oc1c(I)cc(Cl)c2cccnc12 [compound 1, clioquinol, reference compound] | 78 | 90 | 77 | 16 | ++ | 400 to 500 | – | – | – | – | – | –
2 | Oc1cccc2cccnc12 [compound 42] | – | – | – | 14 | – | – | 87 | 97.66 | 79 | 90 | + | –
3 | Cc1cc(C)c2cccnc2c1O [compound 59] | 89 | 97 | 55 | 22 | + | – | – | – | – | – | – | –
4 | Oc1c(Br)cc(-c2cc(F)cc(F)c2)c2cccnc12 [compound 853] | 93 | 79 | 39 | 31 | + | – | – | – | – | – | – | 94.79
5 | Oc1c(-c2ccccc2C(F)(F)F)cc(Cl)c2cccnc12 [compound 864] | 100 | 88 | 37 | 13 | + | – | – | – | – | – | – | 93.12
6 | Oc1ccccc1-c1cc(Cl)c2cccnc2c1O [compound 947] | 100 | 94 | 51 | 3 | + | – | – | – | – | – | – | 70.4
7 | NCc1ccc2cccc(O)c2n1 [compound 968] | 103 | 87 | 82 | 6 | ++ | – | – | – | – | – | – | 97.12
8 | O/N=C/c1ccc2cccc(O)c2n1 [compound 969, 8-Hydroxy-quinoline-2-carboxaldehyde Oxime] | 91 | 92 | 90 | 2 | + | – | – | – | – | – | – | 94.55
9 | Nc1ccccc1NC(=O)c1cc(O)c2cccc(O)c2n1 [compound 986] | 96 | 85 | 60 | 7 | + | – | – | – | – | – | – | 81.73
10 | O=C(CNC(=O)c1cc(O)c2cccc(O)c2n1)NCCc1c[nH]cn1 [compound 987] | 92 | 90 | 87 | 5 | + | – | – | – | – | – | – | 89.03
11 | CN(CCc1ccccn1)Cc1ccc2cccc(O)c2n1 [compound 990] | 95 | 88 | 57 | 18 | + | – | – | – | – | – | – | 57.45
12 | Oc1cccc2ccc(-c3ccccn3)nc12 [compound 1006] | – | 92 | 52 | 7 | ++ | – | – | – | – | – | – | –
13 | CC(=O)NC(=O)c1ccc2cccc(O)c2n1 [compound 1021] | – | 93 | 81 | 1 | – | 270 | – | – | – | – | – | –
14 | O/N=C/c1ccc2c(Cl)cc(Cl)c(O)c2n1 [compound 1031] | – | 85 | 81 | 8 | – | 760 | – | – | – | – | – | –
15 | CO/N=C/c1ccc2c(Cl)cc(Cl)c(O)c2n1 [compound 1032] | – | 83 | 42 | −2 | – | 1000 | – | – | – | – | – | –
16 | NC(=O)c1ccc2c(Cl)cc(Cl)c(O)c2n1 [compound 1037] | – | 88 | 87 | 4 | – | > 10000 | – | – | – | – | – | –
17 | O=C(O)c1ccc2c(Cl)cc(Cl)c(O)c2n1 [compound 1039] | – | 94 | 87 | 9 | – | > 10000 | – | – | – | – | – | –
18 | CN(c1ccccn1)c1ccc2c(Cl)cc(Cl)c(O)c2n1 [compound 1056, 5,7-Dichloro-8-hydroxy-2-(methyl-pyridin-2-yl-amino)-quinoline] | – | 96.44 | 68.25 | 39 | – | 690 | – | – | – | – | – | 68.25
19 | Oc1c(Cl)cc(-c2cccnc2)c2cccnc12 [compound 1057, 7-chloro-5-(pyridin-3-yl)-quinolin-8-ol] | – | 101.84 | 95.02 | 4 | – | 430 | – | – | – | – | – | 95.02
20 | Oc1c(Cl)cc(Cl)c2cc(Cl)cnc12 [compound 1058, 3,5,7-trichloro-8-hydroxyquinoline] | – | 82.47 | 54.60 | 30 | – | 680 | – | – | – | – | – | 54.60
